# Columns and labels:
# Format in all cases: in vivo
# [1] = tested on: human subjects with CVD, specifically stable coronary artery disease; test: Serum lipid levels in humans, A-002 twice a day for eight weeks (Example 4)
# Protocol: 204 human subjects from the United States with CVD, specifically stable coronary artery disease, were randomized to receive placebo or A-002 via oral administration twice a day over an eight week administration period at dosages of 50 mg, 100 mg, 250 mg, or 500 mg. Levels of various lipids and inflammatory markers were measured at the outset of the trial and at the end of weeks four and/or eight. For data sets with a normal distribution, mean levels of lipids or inflammatory markers were analyzed. For data sets with non-normal distribution, median levels were analyzed. […] In addition, administration of A-002 decreased median levels of CRP (Table 11).
# The combined effect of A-002 and statin administration on LDL levels was tested in a population of 332 subjects. This population consisted of the original 204 United States subjects, plus an additional 128 subjects from the Ukraine with stable CAD that received placebo or A-002 based according to the same protocol as the United States subjects. […] Similarly, A-002 decreased LDL levels in subjects receiving a variety of non-statin compounds used in the treatment of CVD, including ezetimibe, AEGR-733/ezetimibe, colesevelam hydrochloride (WelChol®), MK-0524A (Cordaptive®), lisinopril/MC-1 antibody (MC-4232), and Angiotensin Receptor Blocker (ARB)/MC-1 (MC-4262).
# [2] = tested on: ApoE−/− mice; test: Plasma total cholesterol and HDL levels in ApoE−/− mice, A-002 and/or statin (Example 3); conditions: 0.02 g/kg pravastatin in diet alone, 12 weeks
# Protocol: (§1) Body weight, plasma total cholesterol, and plasma HDL levels were measured for six groups of twelve ApoE^−/− mice. The mice were then placed on a high fat diet for twelve weeks to allow for formation of significant fatty atherosclerotic plaques. The high fat diet was a modified version of the Western diet (TD.88137, Harlan Teklad, Madison, Wis.) consisting of casein (195 g/kg), DL-methionine (3 g/kg), sucrose (341.44 g/kg), corn starch (150 g/kg), anhydrous milkfat (210 g/kg), cholesterol (1.5 g/kg), cellulose (50 g/kg), mineral mix AlN-76 (Teklad; 35 g/kg), calcium carbonate (4 g/kg), vitamin mix (Teklad #40060; 10 g/kg), ethyoxyquin (antioxidant, 0.04 g/kg), and either 0.0156 g/kg (“low dose”) A-002 (Group A), 1.56 g/kg (“high dose”) A-002 (Group B), 0.02 g/kg pravastatin (Group C), low dose A-002 plus 0.02 g/kg pravastatin (Group D), high dose A-002 plus 0.02 g/kg pravastatin (Group E), or vehicle only (Group F). Mice were administered diets A-F in a blinded manner, and food was provided ad libitum. The diet was initially prepared based on the assumption that each mouse weighed 22.5 g and ate 4.5 g/day. Based on body weight and food consumption, the diet was modified over the 12 week course of treatment to adjust for a body weight of 26 g and a food intake of 2.5 g/day. The dosages of A-002 were selected to cover a range of 100-fold based on pharmacokinetics in ApoE^−/− mice as well as toxicology and previously observed efficacy in this model.
# Plasma total cholesterol and HDL levels were measured. Mean levels of total cholesterol were decreased in mice administered A-002 alone or in combination with statin (Table 3, FIG. 6). […] Mean levels of HDL were increased in mice administered A-002 at either dosage (Table 4). This increase was greater in mice administered high dose A-002 plus statin than in mice administered high dose A-002 or statin alone (Table 4 compare Group E vs. Groups B and C; FIG. 7).
# [3] = tested on: ApoE−/− mice; test: En face lesion size in ApoE−/− mice on high fat diet, A-002 and/or statin (Example 3); conditions: 0.02 g/kg pravastatin in diet alone, 12 weeks
# Protocol: as §1
# After twelve weeks, mice were sacrificed and plasma, heart tissue, and aortic tissue were collected. En face lesion size was determined via digital imaging analysis. Plaque content (as measured as en face lesion) was reduced in mice administered A-002 alone, statin alone, or A-002 in combination with statin. The reduction in plaque content in mice administered A-002 plus statin was substantially greater than the reduction in mice administered either compound alone (Table 2, compare Group D vs. Groups A and C; Group E vs. Groups B and C). Further, the reduction in plaque content in mice administered A-002 plus statin was substantially greater than the sum of the reduction in plaque content in mice administered A-002 alone and mice administered statin alone.
# [4] = summary Table 20, A-002 alone, statin alone or A-002 plus statin
Structure (SMILES),"Observed change following administration: Mean serum [LDL] at week 8 ([1]; summary Table 22, A-002 alone, ezetimibe alone or A-002 plus ezetimibe)",Mean HDL concentration [2],Mean total cholesterol concentration [2],"increase of mean serum small LDL particle levels ([1]; at eight weeks, United States population, statin alone (Table 14))","decrease of mean serum LDL levels ([1]; at eight weeks, United States subjects with baseline LDL of 72 mg/dl or greater, text restating Tables 15 and 19)","decrease of mean serum LDL levels ([1]; at week eight, combined United States and Ukraine populations, Tables 16 and 18)","decrease of mean serum LDL levels ([1]; at week four, combined United States and Ukraine populations, Tables 16 and 18)","Observed change following administration: Mean serum [LDL] at week 4 [1, 4]","Observed change following administration: Mean serum [LDL] at week 8 [1, 4]","Observed change following administration: Mean serum [LDL] in ≧72 mg/dl subpopulation at week 8 [1, 4]","Observed change following administration: Mean serum [small LDL particle] at week 8 [1, 4]",Change in mean % en face lesion vs. control [3],Mean % en face lesion [3]
"O=C1[C@H](CC[C@H](O)c2ccc(F)cc2)[C@@H](c2ccc(O)cc2)N1c1ccc(F)cc1 [ezetimibe, reference compound]",−1.7%,,,,,,,,,,,,
"CC[C@H](C)C(=O)O[C@H]1C[C@H](O)C=C2C=C[C@H](C)[C@H](CC[C@@H](O)C[C@@H](O)CC(=O)O)[C@H]21 [Statin, pravastatin, reference compound]",,14.500 mg/dL,1405.417 mg/dL,13.26%,4.40%,2.15%,3.36%,−3.36%,−2.15%,−4.40%,+13.26%,−0.813%,4.814%
